# According to patent publication US9134300B2, “Method for screening a drug in retinal tissue” (Research Foundation of the City University of New York, priority 2011, dated 2015):
# System: microtubules
# Test: Time-lapse second-harmonic generation imaging of retinal nerve fibers following treatment with nocodazole
# Design: species or system rat
# Details: retinal nerve fiber layer of retinal flat-mount; perfusion with medium containing nocodazole and 0.4% DMSO; treatment period 90 minutes
# Procedure: Rat retinal flat-mounts were prepared from euthanized rats. The eyes were enucleated. A circumferential incision was made around the limbus and the cornea, lens, and vitreous humor were removed. Several radial cuts were made in the eye cup. The retina was isolated from the retinal pigment epithelium and the sclera and transferred to buffered Ames' medium (Sigma-Aldrich), which was bubbled with 95% oxygen and 5% carbon dioxide, and maintained at 34° C. and pH 7.4. The sample was transferred to a perfusion chamber with a transparent bottom (Warner Instruments) within 15 minutes after euthanasia. The retina was placed on the microscope stage with the retinal nerve fiber layer side up. The speed of laminar flow was approximate 1 mL per min.
# Imaging: Simultaneous second-harmonic generation microscopy and two-photon excitation fluorescence microscopy were performed to image the fresh retina. The excitation wavelength utilized short pulses from a mode-locked Ti: Sapphire laser source with a duration of 100 fs at 80-MHz repetition rate. The excitation wavelength was 785 nm, except for the experiments where two excitation wavelengths at 785 and 880 nm are compared. […]
# Fluorescence was detected in the backward beam path, which included a set of spectral filters (Chroma Technology), and photomultiplier tube (PMT) detectors (Hamamatsu). […]
smiles,measurement,value
COC(=O)Nc1nc2ccc(C(=O)c3cccs3)cc2[nH]1 [nocodazole],intensity of microtubule second-harmonic generation signal,significantly reduced
